From ChEMBL document CHEMBL5653604, “ZSTK474, a novel phosphatidylinositol 3-kinase inhibitor identified using the JFCR39 drug discovery system” (Acta Pharmacol Sin, 2010) come the findings set out here.

The target in experiment [1] is Phosphatidylinositol 4,5-bisphosphate 3-kinase catalytic subunit beta isoform (Homo sapiens, UniProt P42338). The experiment can be described thus: Inhibition of p110 beta (unknown origin).
The target of experiment [2] is Phosphatidylinositol 4,5-bisphosphate 3-kinase catalytic subunit gamma isoform (Homo sapiens, UniProt P48736). The experiment can be described thus: Inhibition of p110 gamma (unknown origin).
Experiment [3] addresses T1, Phosphatidylinositol 4,5-bisphosphate 3-kinase catalytic subunit delta isoform (Homo sapiens, UniProt O00329).
T1 sequence (O00329 whole entry): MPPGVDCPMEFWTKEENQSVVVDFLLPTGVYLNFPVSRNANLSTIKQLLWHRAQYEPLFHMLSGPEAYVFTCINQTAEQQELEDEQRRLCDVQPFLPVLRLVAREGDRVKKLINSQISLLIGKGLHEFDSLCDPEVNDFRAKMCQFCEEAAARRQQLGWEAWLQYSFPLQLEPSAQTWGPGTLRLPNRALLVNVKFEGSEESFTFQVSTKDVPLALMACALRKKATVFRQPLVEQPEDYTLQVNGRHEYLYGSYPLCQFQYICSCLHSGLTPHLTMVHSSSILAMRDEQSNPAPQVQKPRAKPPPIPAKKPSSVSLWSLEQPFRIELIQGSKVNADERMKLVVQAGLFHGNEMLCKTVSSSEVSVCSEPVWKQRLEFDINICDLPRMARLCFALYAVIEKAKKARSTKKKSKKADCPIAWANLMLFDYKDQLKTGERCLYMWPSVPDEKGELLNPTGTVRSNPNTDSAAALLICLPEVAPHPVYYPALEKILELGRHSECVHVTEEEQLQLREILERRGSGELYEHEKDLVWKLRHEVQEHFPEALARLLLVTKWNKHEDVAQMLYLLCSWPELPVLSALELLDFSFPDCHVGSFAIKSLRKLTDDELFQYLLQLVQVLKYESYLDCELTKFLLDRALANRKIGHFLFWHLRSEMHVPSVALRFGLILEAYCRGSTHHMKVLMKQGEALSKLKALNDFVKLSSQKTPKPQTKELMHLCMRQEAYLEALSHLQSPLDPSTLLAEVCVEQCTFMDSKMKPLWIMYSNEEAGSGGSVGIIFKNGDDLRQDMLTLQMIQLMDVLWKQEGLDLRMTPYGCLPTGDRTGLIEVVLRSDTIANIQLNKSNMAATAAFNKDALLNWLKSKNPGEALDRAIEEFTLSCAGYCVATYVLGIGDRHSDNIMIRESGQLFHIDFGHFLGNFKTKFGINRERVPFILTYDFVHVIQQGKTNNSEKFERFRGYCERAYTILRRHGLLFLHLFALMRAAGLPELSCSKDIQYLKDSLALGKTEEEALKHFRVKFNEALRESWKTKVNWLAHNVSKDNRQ
The experiment can be described thus: Inhibition of p110 delta (unknown origin).

Experiment [4] deals with Phosphatidylinositol 4,5-bisphosphate 3-kinase catalytic subunit alpha isoform (Homo sapiens, UniProt P42336). The experiment is described as follows: Inhibition of p110 alpha (unknown origin).
The subject of the next experiment is RXF 631. The experiment is described as follows: Growth inhibition of human RXF 631 cells assessed as reduction in cell viability incubated for 48 hrs by SRB assay. In kind it is functional. In general terms: In SRB staining, fixed cells bind dye roughly in proportion to their protein.
Another experiment relates to SK-OV-3. The experiment is described as follows: Growth inhibition of human SK-OV-3 cells assessed as reduction in cell viability incubated for 48 hrs by SRB assay. The class given is functional.
Another experiment relates to NCI-H460. The experiment can be described thus: Growth inhibition of human NCI-H460 cells assessed as reduction in cell viability incubated for 48 hrs by SRB assay. In kind it is functional.
The next experiment relates to OVCAR-8. The experiment is described as follows: Growth inhibition of human OVCAR-8 cells assessed as reduction in cell viability incubated for 48 hrs by SRB assay. In kind it is functional.

In general, IC50 refers to the point on the concentration scale where inhibition reaches its midpoint. A lower IC50 goes with greater potency. A word on the GI50: it is the concentration giving 50% growth inhibition.

Structures are written as SMILES.

Chain of Phosphatidylinositol 4,5-bisphosphate 3-kinase catalytic subunit gamma isoform (P48736 whole entry, canonical isoform): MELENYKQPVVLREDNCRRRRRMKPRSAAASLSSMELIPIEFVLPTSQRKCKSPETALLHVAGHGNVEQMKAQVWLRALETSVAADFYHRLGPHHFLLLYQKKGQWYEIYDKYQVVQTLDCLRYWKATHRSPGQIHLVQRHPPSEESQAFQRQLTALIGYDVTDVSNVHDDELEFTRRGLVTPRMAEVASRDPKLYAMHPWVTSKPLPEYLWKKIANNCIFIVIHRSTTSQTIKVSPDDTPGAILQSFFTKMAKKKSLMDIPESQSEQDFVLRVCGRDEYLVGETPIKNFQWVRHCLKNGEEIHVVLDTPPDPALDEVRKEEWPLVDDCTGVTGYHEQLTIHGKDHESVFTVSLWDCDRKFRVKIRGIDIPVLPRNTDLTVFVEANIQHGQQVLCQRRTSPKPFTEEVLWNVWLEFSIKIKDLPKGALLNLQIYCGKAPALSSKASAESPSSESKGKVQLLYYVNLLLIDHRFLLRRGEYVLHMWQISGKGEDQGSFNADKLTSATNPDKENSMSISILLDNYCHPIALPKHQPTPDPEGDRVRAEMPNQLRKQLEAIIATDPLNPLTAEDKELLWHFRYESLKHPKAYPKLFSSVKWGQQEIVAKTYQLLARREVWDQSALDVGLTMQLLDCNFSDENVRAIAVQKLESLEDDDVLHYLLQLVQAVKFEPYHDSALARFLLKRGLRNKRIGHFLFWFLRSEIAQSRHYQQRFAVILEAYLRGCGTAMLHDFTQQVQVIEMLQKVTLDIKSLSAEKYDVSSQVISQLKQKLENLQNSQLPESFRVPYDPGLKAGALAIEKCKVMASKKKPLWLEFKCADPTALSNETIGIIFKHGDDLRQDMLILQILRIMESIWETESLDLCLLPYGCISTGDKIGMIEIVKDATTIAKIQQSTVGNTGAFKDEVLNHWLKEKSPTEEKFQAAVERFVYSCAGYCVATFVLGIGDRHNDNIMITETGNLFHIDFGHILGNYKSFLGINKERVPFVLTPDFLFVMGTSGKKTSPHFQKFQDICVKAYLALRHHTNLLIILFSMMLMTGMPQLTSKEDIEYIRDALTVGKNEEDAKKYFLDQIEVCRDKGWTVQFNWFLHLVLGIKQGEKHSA
Chain of Phosphatidylinositol 4,5-bisphosphate 3-kinase catalytic subunit beta isoform (P42338 whole entry, canonical isoform): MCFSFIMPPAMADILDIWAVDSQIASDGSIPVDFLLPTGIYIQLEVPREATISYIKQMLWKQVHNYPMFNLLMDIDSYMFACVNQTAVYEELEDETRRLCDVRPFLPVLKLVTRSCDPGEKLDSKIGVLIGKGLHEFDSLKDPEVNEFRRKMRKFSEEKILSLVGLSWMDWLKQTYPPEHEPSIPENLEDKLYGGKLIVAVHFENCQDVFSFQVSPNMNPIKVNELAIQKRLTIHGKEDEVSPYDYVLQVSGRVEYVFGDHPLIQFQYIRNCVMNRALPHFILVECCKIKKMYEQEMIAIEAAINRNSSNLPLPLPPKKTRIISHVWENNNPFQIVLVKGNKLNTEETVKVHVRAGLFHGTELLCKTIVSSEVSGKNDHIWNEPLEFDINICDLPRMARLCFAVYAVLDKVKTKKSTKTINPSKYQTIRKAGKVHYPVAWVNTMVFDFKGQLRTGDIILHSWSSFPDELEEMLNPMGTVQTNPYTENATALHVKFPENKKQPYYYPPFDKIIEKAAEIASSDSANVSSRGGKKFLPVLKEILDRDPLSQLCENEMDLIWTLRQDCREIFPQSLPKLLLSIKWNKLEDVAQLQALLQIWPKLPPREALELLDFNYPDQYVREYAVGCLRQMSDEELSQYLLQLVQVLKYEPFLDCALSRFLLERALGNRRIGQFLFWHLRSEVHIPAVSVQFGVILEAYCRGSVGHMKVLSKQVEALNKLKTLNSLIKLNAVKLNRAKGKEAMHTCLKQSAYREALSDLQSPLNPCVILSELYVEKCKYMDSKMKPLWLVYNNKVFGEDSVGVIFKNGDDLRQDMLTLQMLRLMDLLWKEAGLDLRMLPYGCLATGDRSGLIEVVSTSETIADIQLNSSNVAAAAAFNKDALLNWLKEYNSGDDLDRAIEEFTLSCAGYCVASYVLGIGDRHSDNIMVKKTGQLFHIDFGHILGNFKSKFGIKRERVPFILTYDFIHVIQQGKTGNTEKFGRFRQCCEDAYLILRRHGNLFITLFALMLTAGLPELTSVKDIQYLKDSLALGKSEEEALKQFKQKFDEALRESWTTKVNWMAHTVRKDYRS
Chain of Phosphatidylinositol 4,5-bisphosphate 3-kinase catalytic subunit alpha isoform (P42336 whole entry, canonical isoform): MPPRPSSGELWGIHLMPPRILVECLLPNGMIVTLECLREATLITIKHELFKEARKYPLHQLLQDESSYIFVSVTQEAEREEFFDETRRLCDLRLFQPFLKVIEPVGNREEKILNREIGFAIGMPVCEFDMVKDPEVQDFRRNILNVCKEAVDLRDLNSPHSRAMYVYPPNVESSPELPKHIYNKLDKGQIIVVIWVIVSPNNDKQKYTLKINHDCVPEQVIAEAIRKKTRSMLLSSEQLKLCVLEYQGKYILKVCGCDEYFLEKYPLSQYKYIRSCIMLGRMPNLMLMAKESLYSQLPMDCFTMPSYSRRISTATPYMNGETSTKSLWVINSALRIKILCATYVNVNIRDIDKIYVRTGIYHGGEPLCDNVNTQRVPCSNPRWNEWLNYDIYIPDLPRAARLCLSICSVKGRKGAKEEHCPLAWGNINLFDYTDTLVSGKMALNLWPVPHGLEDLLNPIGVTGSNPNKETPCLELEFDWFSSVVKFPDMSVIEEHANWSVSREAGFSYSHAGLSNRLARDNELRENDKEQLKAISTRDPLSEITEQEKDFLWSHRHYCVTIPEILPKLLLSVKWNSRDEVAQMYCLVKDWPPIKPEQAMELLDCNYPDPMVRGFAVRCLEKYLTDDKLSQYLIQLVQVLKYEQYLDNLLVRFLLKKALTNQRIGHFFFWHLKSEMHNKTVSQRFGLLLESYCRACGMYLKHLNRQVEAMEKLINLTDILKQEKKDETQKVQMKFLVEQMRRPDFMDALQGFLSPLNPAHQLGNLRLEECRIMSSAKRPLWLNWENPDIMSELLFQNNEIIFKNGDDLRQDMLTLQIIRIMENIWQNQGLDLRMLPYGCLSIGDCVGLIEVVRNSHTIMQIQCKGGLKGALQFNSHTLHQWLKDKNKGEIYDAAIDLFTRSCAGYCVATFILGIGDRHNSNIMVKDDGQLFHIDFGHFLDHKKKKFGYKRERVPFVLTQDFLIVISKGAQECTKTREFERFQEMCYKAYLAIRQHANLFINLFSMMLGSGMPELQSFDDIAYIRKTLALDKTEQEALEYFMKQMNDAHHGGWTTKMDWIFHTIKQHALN

Consider `COc1cc(Nc2nc3ccccc3nc2NS(=O)(=O)c2ccc(NC(=O)c3ccc(C)c(OC)c3)cc2)cc(OC)c1`, for which the IC50 in experiment [1] came to 113 nM. That is a sub-micromolar value.

For the molecule `COc1ncc(-c2ccc3nccc(-c4ccnnc4)c3c2)cc1NS(=O)(=O)c1ccc(F)cc1F` [OMIPALISIB], inhibition in experiment [2] was half-maximal at 1 nM (IC50).

As to `COc1ccc(Cl)c(Nc2nc3ccccc3nc2NS(=O)(=O)c2cccc(NC(=O)C(C)(C)N)c2)c1` [PILARALISIB], the IC50 stood at 36 nM in experiment [3] and 23 nM in experiment [2].

Consider `C=CCN(/C=C1/C(=O)O[C@H](COC)[C@@]2(C)C1=C(O)C(=O)C1=C2[C@H](OC(C)=O)C[C@]2(C)C(=O)CC[C@@H]12)CC=C` [SONOLISIB], for which the results for the IC50 in experiment [3], in experiment [1] and in experiment [4] were 3 nM, greater than 300 nM and 6 nM, respectively.

Consider `FC(F)c1nc2ccccc2n1-c1nc(N2CCOCC2)nc(N2CCOCC2)n1` [ZSTK-474], for which the GI50 in the experiment on RXF 631 was 316 nM; in the experiment on SK-OV-3, 398 nM; with NCI-H460, 372 nM; in the experiment on OVCAR-8, 1260 nM.
